We go through one compound from patent US20260015364A1, “PIPERAZINE BRIDGE-SUBSTITUTED HETEROCYCLIC PYRIMIDINE COMPOUND” (MEDSHINE DISCOVERY INC., priority 2022, published 2026).

Data set [1] concerns PANC04.03 human pancreatic cancer cells with KRAS^G12D mutation. The data set can be described thus: PANC04.03 3D CTG experiment (anti-proliferation). Format: cell-based. The settings on record: Panc 04.03, 168 h, 7 days incubation. The text has this:
This experiment aims to verify the inhibitory effect of the compounds of the present disclosure on the proliferation of PANC04.03 human pancreatic cancer cells with KRAS^G12D mutation.
Cell line PANC04.03 and RPMI-1640 medium were purchased from GIBCO, FBS was purchased from Hyclone, and human insulin was purchased from Yeasen. The 96-well plate was purchased from Ultra Low Cluster, CellTiter-Glo® 3D Cell Viability Assay reagents (chemiluminescent 3D cell viability assay reagents) were purchased from Promega, and 2104 En Vision plate reader was purchased from PerkinElmer.
PANC04.03 cells were cultured in an incubator at 37° C. with 5% CO2 under the conditions of RPMI-1640+15% FBS+5 µg/mL human insulin. Regular passaging was performed, and cells in the logarithmic growth phase were selected for plating. PANC04.03 cells were seeded in a 96-well U-bottom cell culture plate, and each well of 135 μL cell suspension contained 2000 PANC04.03 cells. The culture plate was cultured overnight in a 37° C., 5% CO2 incubator with 100% relative humidity. The test compound was diluted 5-fold to the eighth concentration using a pipette, ranging from 200 μM to 2.56 nM, and tested in duplicate. 78 μL of culture medium per well was added to an intermediate plate. […] A multimode microplate reader was used for reading. […]

Data set [2] deals with p-ERK in GP2D cells. The data set can be described thus: p-ERK inhibition test of GP2D cells (HTRF). The settings on record: Homo sapiens, 1 hour compound incubation. Format: cell-based. As for the experimental part: • 1). GP2D cells are seeded in a transparent 96-well cell culture plate, with 80 μL of cell suspension per well and 8000 cells per well, and the cell plate is incubated in a carbon dioxide incubator at 37° C. overnight; • 2). 2 μL of the compound is added to 78 μL of cell culture medium; after mixing well, 20 μL of the compound solution is taken and added to the corresponding cell plate wells, and the cell plate is put back into the carbon dioxide incubator to incubate for another 1 hour; • 3). After the incubation is completed, the cell supernatant is discarded, and 50 μL of 1× cell lysate is added to each well, and incubated at room temperature for 30 minutes with shaking; • 4). Phospho-ERK1/2 Eu Cryptate antibody and Phospho-ERK1/2 d2 antibody are 20-fold diluted using detection buffer; • 5). […] After the incubation is completed, a multimode microplate reader is used to read HTRF excitation: 320 nm, emission: 615 nm, 665 nm; • 7). The IC50 of the test compound is calculated.
• 1). […] After the incubation was completed, a multimode microplate reader was used to read HTRF excitation: 320 nm, emission: 615 nm, 665 nm; • 7) The IC50 of the test compound was calculated.
Background: In TR-FRET formats the signal depends on donor and acceptor labels being close together.

Data set [3] is described as follows: In vivo pharmacokinetic experiment in CD-1 mice. As for the experimental part:
This experiment aims to investigate the pharmacokinetic properties of the compounds of the present disclosure administrated by oral and intravenous injection in CD-1 mice.
The test compound was mixed with 10% dimethyl sulfoxide+90% (10% hydroxypropyl-β-cyclodextrin (HP-β-CD) aqueous solution), vortexed, and sonicated to prepare 0.6, 3.0, and 10.0 mg/mL clear solutions, respectively. Male CD-1 mice aged 7 to 10 weeks were selected and intravenously injected (i.v.) with a solution of the candidate compound at a dose of 3 mg/kg (administration concentration of 0.6 mg/mL). The solution of the candidate compound was administered orally (p.o.) at a dose of 30 mg/kg (administration concentration of 3.0 mg/mL) or 100 mg/kg (administration concentration of 10.0 mg/mL). Whole blood was collected for a certain period of time and prepared into plasma. The drug concentration was analyzed by the LC-MS/MS method, and the pharmacokinetic parameters were calculated using Phoenix WinNonlin software (Pharsight, USA).

The mark [4] stands for this setting: male, mouse, iv, 3 mg/kg, i.v. 3 mpk, plasma.
Where [5] appears, read: male, mouse, po, 30 mg/kg, p.o. 30 mpk, plasma.
The mark [6] stands for this setting: male, mouse, po, 100 mg/kg, p.o. 100 mpk, plasma.

The structures appear in SMILES notation.

As for `C#Cc1c(F)ccc2cc(N)cc(-c3ncc4c(N5CC6CCC(C5)N6)nc(OC[C@@]56CC(=C)CN5C[C@@H]5C[C@@H]56)nc4c3F)c12` (single isomer, unassigned) [Compound 3], the IC50 in data set [1] was found to be 34.2 nM. In data set [2], this compound showed an IC50 of 2.4 nM. In data set [3] (setting [4]), the AUC(0-inf) was 1.66 µM·h, the area under the curve AUC(0-t) was found to be 1.56 µM·h, the Vd stood at 41.1 L/kg and the clearance stood at 50.8 mL/min/kg. Further, the half-life in data set [3] (setting [4]) is 9.3 h. Moreover, in data set [3] (setting [5]), the total exposure AUC(0-inf) was 1.18 µM·h, the AUC(0-t) is 1.15 µM·h, the concentration peaked (Cmax) at 439 nM and the Tmax is 0.583 h. This compound also showed a half-life in data set [3] (setting [5]) of 5.41 h. Further, in data set [3] (setting [6]), the area under the curve AUC(0-inf) is 13.3 µM·h, the AUC(0-t) was 13.1 µM·h, the highest concentration (Cmax) was found to be 3110 nM and the time to peak (Tmax) came to 1.25 h. Further, the half-life in data set [3] (setting [6]) is 4.24 h. Besides, in data set [3] (p.o. 100 mpk), the F stood at 24.0%.

As usually defined, the IC50 is the concentration that inhibits the measured activity by half. What is called AUC(0-inf) is total exposure, with the tail of the curve extrapolated. Higher therefore signals more exposure. What is called AUC(0-t) is the area under the concentration-time curve up to a stated or last time point. Lower therefore signals low exposure. As usually defined, the Vd is the apparent volume that relates the amount in the body to the concentration in plasma or blood. By clearance is commonly meant the volume of plasma or blood freed of the substance per unit of time. A low value points to a low capacity for elimination. The half-life is the time needed for the level to fall by half in the phase considered. A low value points to fast loss. The Cmax is the highest concentration seen after dosing. Broadly, the Tmax is the time from dosing to the highest level.
